Test results reported in patent US8470813B2, “Thiazoline and oxazoline derivatives and their methods of use” (AbbVie Inc., priority 2006, dated 2013).
Values belong to the molecule of their own block, whether it stands above or below them.

Experiments:
α7 nAChRs [1] = target: T1, α7 nAChRs (Homo sapiens, UniProt P36544); assay: High-throughput calcium flux (FLIPR) assay using IMR-32 cells expressing endogenous α7 nAChRs; assay type: cell-based
T1 construct: IMR-32 cells endogenous expressing α7 nAChRs; host or cells: IMR-32 neuroblastoma cells
Description: (i) High-Throughput Calcium Flux Assays Using Cells Expressing Endogenous α7 nAChRs
As such, positive allosteric modulators can be identified or nicotinic acetylcholine receptor agonists can be identified by using IMR-32 cells that endogenously express various nicotinic receptors including α7 nAChRs. […] Accordingly, allosteric modulator compounds described herein can be identified using fluorescence-based throughput functional assay using cell lines such as IMR-32 neuroblastoma or primary dissociated neurons. Although cell types such as IMR-32 neuroblastoma and neurons are known to contain several nicotinic receptor subunits, α7 selective agonists in the present assay selectively stimulate calcium responses only in the presence of positive allosteric modulators. Any suitable selective α7 agonist can be used.
IMR-32 neuroblastoma cells (ATCC) were grown to confluency in 162 cm^2 tissue culture flasks in minimum essential media supplemented with 10% FBS and 1 mM sodium pyruvate, 0.1 mM non-essential amino acids and 1% antibiotic-antimycotic. The cells were then dissociated using cell dissociation buffer and 40 μl of 3.5×10^5 cells/ml cell suspension was plated (15,000 cells/well) into black plates with clear bottom and maintained for 48 hours in a tissue culture incubator at 37° C. under an atmosphere of 5% CO2: 95% air. […] Calcium flux was measured using calcium-3 assay kit (Molecular Devices, Sunnyvale, Calif.) or fluo-4. A stock solution of the dye was prepared by dissolving each vial supplied by the vendor in Hank's balanced salt solution buffer (HBSS) containing 20 mM HEPES. The stock solution was diluted 1:20 using the same buffer before use. The growth media was removed from the cells and loaded with 45 μl of the dye and incubated at room temperature for three hours. Fluorescence measurements were read simultaneously from all the wells by a Fluorometic Imaging Plate Reader (FLIPR) at an excitation wavelength of 480 nm and an emission wavelength of 520 nm. Baseline fluorescence was measured for the first 10 seconds at which 5× concentrations of modulator/test compounds were added to the cell plate and incubated for three minutes. The fluorescence intensity was captured every second for the first 1 minute followed by every 5 seconds for an additional 2 minutes. This procedure was followed by 20 μl of 4× concentration of agonist and readings were taken for a period of three minutes as described above.

α7 nAChRs [2] = target: T2, α7 nAChRs (Rattus norvegicus, UniProt Q05941); assay: High-throughput phospho-ERK assay (in-cell western) using PC-12 cells expressing endogenous α7 nAChRs; assay type: cell-based; details: in presence of selective α7 agonist, FIG. 4
T2 construct: cells expressing endogenous α7 nAChRs without the need for overexpressing recombinant receptors; host or cells: PC-12 rat pheochromocytoma cells
Description: To determine the effectiveness of compounds of formula (I) or (II), as allosteric modulators, the compounds of the invention were evaluated according to two high-throughput functional assays using (i) IMR-32 cells endogenous expressing α7 nAChRs and measuring Ca^2+ flux or membrane potential changes utilizing the fluorescence-imaging plate reader (FLIPR)-based assays and (ii) measurement of phospho-ERK activity using western blot assays. These assays allow for higher throughput screening of positive allosteric modulators using cells or cell lines expressing endogenous α7 nAChRs.
(ii) High-Throughput Phospho-Erk Assays Using Cells Expressing Endogenous α7 nAChRs
Rat pheochromocytoma (PC-12) cells (ATCC, Manassas, Va.) were cultured and maintained in F-12K media supplemented with 15% horse serum, 2.5% fetal calf serum, and 2 mM L-Glutamine in poly-D lysine coated dishes at 37° C. and 5% CO2. […]
PC-12 cells are treated for 10 minutes at 37° C. with test positive allosteric modulator compounds and then challenged with a selective α7 agonist for 5 minutes at 37° C. in a final volume of 100 μl/well, unless otherwise indicated. […] Well intensities were quantitated and phospho-ERK signals were normalized to total ERK signals by the Odyssey software. […]

T1 sequence (P36544 23-502): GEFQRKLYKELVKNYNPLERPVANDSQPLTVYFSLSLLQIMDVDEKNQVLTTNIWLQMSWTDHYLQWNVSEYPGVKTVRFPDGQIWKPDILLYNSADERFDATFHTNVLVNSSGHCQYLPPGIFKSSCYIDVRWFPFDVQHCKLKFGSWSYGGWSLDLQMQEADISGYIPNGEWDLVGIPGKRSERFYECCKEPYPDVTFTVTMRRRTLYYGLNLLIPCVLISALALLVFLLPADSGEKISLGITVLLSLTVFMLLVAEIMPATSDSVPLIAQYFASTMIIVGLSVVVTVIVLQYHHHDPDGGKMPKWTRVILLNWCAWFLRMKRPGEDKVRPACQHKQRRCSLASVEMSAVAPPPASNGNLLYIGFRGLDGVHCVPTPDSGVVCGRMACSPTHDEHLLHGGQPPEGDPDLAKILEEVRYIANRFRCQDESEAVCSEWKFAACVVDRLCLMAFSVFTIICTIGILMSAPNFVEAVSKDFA
T2 sequence (Q05941 23-502): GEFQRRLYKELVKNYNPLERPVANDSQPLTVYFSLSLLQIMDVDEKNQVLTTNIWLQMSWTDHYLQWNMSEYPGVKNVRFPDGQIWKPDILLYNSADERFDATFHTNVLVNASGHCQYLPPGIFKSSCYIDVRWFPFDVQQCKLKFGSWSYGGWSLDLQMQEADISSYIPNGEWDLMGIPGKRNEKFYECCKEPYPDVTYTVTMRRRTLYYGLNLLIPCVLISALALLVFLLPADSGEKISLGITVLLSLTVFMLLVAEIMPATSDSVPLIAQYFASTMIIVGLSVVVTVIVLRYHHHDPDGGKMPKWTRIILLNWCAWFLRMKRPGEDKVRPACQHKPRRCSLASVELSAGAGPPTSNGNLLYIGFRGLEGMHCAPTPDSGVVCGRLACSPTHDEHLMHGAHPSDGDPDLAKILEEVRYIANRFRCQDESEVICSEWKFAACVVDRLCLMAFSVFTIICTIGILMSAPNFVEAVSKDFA

Compound: c1ccc(-c2nnc(N3CCN4CCC3CC4)o2)cc1 [4-(5-Phenyl-[1,3,4]oxadiazol-2-yl)-1,4-diaza-bicyclo[3.2.2]nonane, reference compound]
calcium response, agonist alone (α7 nAChRs [1]; IMR-32 cells, absence of allosteric modulator, FIG. 3): did not trigger calcium responses

calcium fluorescence response, modulator co-applied with agonist (α7 nAChRs [1]; IMR-32 cells, Example 9 10 μM with agonist 4-(5-phenyl-[1,3,4]oxadiazol-2-yl)-1,4-diaza-bicyclo[3.2.2]nonane, FIG. 1): evoked calcium fluorescence response | calcium response, modulator alone (α7 nAChRs [1]; IMR-32 cells, absence of α7 nAChR agonist, FIG. 2): did not trigger calcium responses | EC50 (α7 nAChRs [1]; IMR-32 neuroblastoma cells, in presence of agonist 4-(5-phenyl-[1,3,4]oxadiazol-2-yl)-1,4-diaza-bicyclo[3.2.2]nonane, FIG. 2, read-out: EC50 value of the modulator (calcium fluorescence response)): 3 µM
Compound: Cc1cn(-c2ccc3c(c2)OC(F)(F)O3)/c(=N/C(=O)N(C)C)s1 [Example 9, N′-[(2Z)-3-(2,2-difluoro-1,3-benzodioxol-5-yl)-5-methyl-1,3-thiazol-2(3H)-ylidene]-N,N-dimethylurea]
ERK phosphorylation, concentration-response (α7 nAChRs [2]): evoke concentration-dependent increases in ERK phosphorylation

Compound: CCN1C[C@]2(COC(=O)c3ccccc3N3C(=O)C[C@H](C)C3=O)CC[C@H](OC)[C@@]34[C@@H]5C[C@H]6[C@H](OC)[C@@H]5[C@](O)(C[C@@H]6OC)[C@@](O)([C@@H](OC)[C@H]23)[C@@H]14 [methyllycaconitine, reference compound]
effect of α7 selective antagonist on agonist plus modulator calcium response (α7 nAChRs [1]; IMR-32 cells): abolishes response
